Test results from patent US20160095842A1 (priority 2013, published 2016).
Values joined by “and” are separate entries in the source; they are usually repeats but may differ in a detail not shown here. Equal values may be shown once. “Also recorded” adds a separate entry of the source.

Key:
[1] = test system: RT112 urinary bladder carcinoma; assay: Antitumor activity against s.c. RT112 tumors in nude mice; assay type: in vivo, female Hsd: Athymic Nude-nu mice; settings: for Mean change of tumor volume / Final Tumor Volume: Clarke 1997 analysis table; for Final Tumor Volume: end of 14 days treatment, in mm³ (unit assumed)
Method: Animals: Experiments are performed in female Hsd: Athymic Nude-nu mice obtained from Harlan Cpb, Germany. Animals are from 8 to 14 weeks of age at treatment start and are housed under Optimized Hygienic Conditions in Makrolon type III cages (max. 10 animals per cage) with free access to food and water
Establishment of RT112 tumors: The RT112 human urinary bladder carcinoma cell line was initially derived from a patient with untreated primary urinary bladder carcinoma in 1973. RT112 cells are cultured as in Example 1. To establish tumors, RT112 cells suspended in Hanks' balanced salt solution (HBSS) containing 50% Matrigel (BD #356234) are injected subcutaneously into the right flank. A total of 5×10^6 cells in 100 μl are injected per animal.
Evaluation of antitumor activity: Treatments are initiated when the mean tumor volumes were approximately 180 mm^3 (14 days post tumor cells injection). Body weights and tumor volumes are recorded twice a week. Tumor volumes are measured with calipers and determined according to the formula length×diameter^2×π/6. In addition to presenting changes of tumor volumes over the course of treatments, antitumor activity is expressed as T/C % (mean change of tumor volume of treated animals/mean change of tumor volume of control animals)×100. Regressions (%) are calculated according to the formula ((mean tumor volume at end of treatment-mean tumor volume at start of treatment)/mean tumor volume at start of treatment)×100.
Preparation of Compound Solutions: Vehicle control is prepared by mixing 250 μl 1-methyl-2-pyrrolidone (“NMP”)(Fluka #69118), 750 μl Polyethylene glycol 300 (“PEG300”)(Fluka, #81162), 500 μl Solutol HS15 (BASF, #51633963) and 1000 μl water.
Statistics: For all tests, the level of significance is set at p<0.05. For tumor volumes, comparisons between treatment groups and vehicle control group are done using one-way ANOVA followed by Dunnett's test. The level of significance of body weight change within a group between the start and the end of the treatment period is determined using a paired t-test. Comparisons of delta body weighs between treatment and vehicle control groups are performed by a one-way ANOVA followed by a post hoc Dunnett's test. Calculations are performed using GraphPad Prism 6 for Windows (GraphPad Software Inc.).
Estimation of drug-drug interaction: an approximation of drug interactions is made using the method described by Clarke R., “Issues in experimental design and endpoint analysis in the study of experimental cytotoxic agents in vivo in breast cancer and other models”, Breast Cancer Res. Treat., 46, 255-78 (1997) (“Clark 1997”). This is applied to ΔTV (Mean tumor volume at the end of the treatment period—mean tumor volume at the beginning of the treatment period).
Upon performance of the foregoing experiment, the results are summarized in the table below: Ten millions RT-112 cells are injected subcutaneously into the right flank of female athymic nude mice on Day 0. On day 14, tumors are measured and mice are randomized into treatment groups with 8 mice per group. […] Statistics on Δ tumor volumes are performed with a one-way ANOVA, post hoc Dunnett's (*p<0.05 vs. vehicle controls) to compare treatment groups against the vehicle control group. For body weights, paired t tests between the weights at the beginning and the end of the treatment period are performed (*p<0.05).
A compound interaction analysis with the method described by Clarke 1997 is conducted. In accordance with this method, the experimental data is interpreted as follows: antagonism is predicted when the calculation AB/C>B/C×A/C, additive interaction is predicted when the calculation AB/C=B/C×A/C, and synergistic when AB/C<B/C×A/C.

pAKT (AKTpS473) = assay: Immunohistochemistry of RT112 tumors: pAKT; assay type: in vivo, female Hsd: Athymic Nude-nu mice; settings: 7 days, Compound A 50 mg/kg, Compound B 10 mg/kg, 2 hours after last treatment
Method: (§1) Animals: Experiments are performed in female Hsd: Athymic Nude-nu mice obtained from Harlan Cpb, Germany. Animals are from 8 to 14 weeks of age at treatment start and housed under Optimized Hygienic Conditions in Makrolon type III cages (max. 10 animals per cage) with free access to food and water
(§2) Establishment of RT112 tumors and compound treatments: The RT112 human urinary bladder carcinoma cell line was initially derived from a patient with untreated primary urinary bladder carcinoma in 1973 (Marshall et al. 1977, Masters et al. 1986). RT112 cells are cultured as in Example 1. Tumor establishment is done as in Example 2. Treatments are initiated when the mean tumor volumes are approximately 240 mm^3 (20 days post tumor cells injection).
(§3) Dissection: 2 hours after the last treatment animals are anaesthetized by Forene inhalation narcosis and euthanized by cervical dislocation. Each tumor is dissected, is cut into two equal pieces and is processed for formalin-fixed paraffin embedded sectioning. […]
(§4) Slides are mounted on a Ventana Discovery XT immunostainer and are processed for automated IHC by using a ChromoMAP kit and an OmniMAP anti Rabbit polymer-based amplification system. […] Endogenous peroxidase activities were subsequently quenched by using the ready to use solution from the ChromoMAP kit. […]

pErk1/2 (pMAPK) = assay: Immunohistochemistry of RT112 tumors: pErk1/2 (pMAPK); assay type: in vivo, female Hsd: Athymic Nude-nu mice; settings: 7 days, Compound A 50 mg/kg, Compound B 10 mg/kg, 2 hours after last treatment
Method: as §1, §2, §3, §4

[2] = test system: FGFR kinase receptors 1-4 (FGFR1, FGFR2, FGFR3, and FGFR4); settings: cited from earlier work
[3] = Compound A 50 mg/kg, Compound B 10 mg/kg, p.o., q24 h, 14 days

Row | SMILES | Mean change of tumor volume [1] | % change of body weight [1, 3] | Regression (%) [1, 3] | Survival (survivors/total) [1, 3] | Mean change of body weight (g ± SEM) ([1]; Compound A 50 mg/kg, Compound B 10 mg/kg, p.o., q24 h, 14 days, *p<0.05 paired t test) | Final Tumor Volume [1] | inhibition of pAKT (immunohistochemistry) (pAKT (AKTpS473)) | T/C (%) (change in tumor volume, treated vs vehicle) ([1]; 10 mg/kg p.o. q24 h, 14 days, non-statistically significant) | T/C (%) [1, 3] | Mean change of tumor volume (mm^3 ± SEM) ([1]; Compound A 50 mg/kg, Compound B 10 mg/kg, p.o., q24 h, 14 days, *p<0.05 vs vehicle) | ratio to vehicle control (B/C, A/C, AB/C) ([1]; based on Final Tumor Volume) | ratio to vehicle control (B/C, A/C, AB/C) ([1]; based on Mean change of tumor volume) | inhibition of pErk1/2 (pMAPK) (immunohistochemistry) (pErk1/2 (pMAPK)) | selectivity for FGFR kinase receptors 1-4 [2]
1 | Cc1nc(NC(=O)N2CCC[C@H]2C(N)=O)sc1-c1ccnc(C(C)(C)C(F)(F)F)c1 [Compound A, (S)-Pyrrolidine-1,2-dicarboxylic acid 2-amide 1-({4-methyl-5-[2-(2,2,2-trifluoro-1,1-dimethyl-ethyl)-pyridin-4-yl]-thiazol-2-yl}-amide)] | −2 | −0.8% | 1.1% and −1.1% | 8/8 | -0.2 ± 0.4 g | 179.4 | strongly inhibits; also recorded: significantly inhibits | – | – | – | – | – | – | –
2 | CCN1CCN(c2ccc(Nc3cc(N(C)C(=O)Nc4c(Cl)c(OC)cc(OC)c4Cl)ncn3)cc2)CC1 [Compound B, 3-(2,6-dichloro-3,5-dimethoxy-phenyl)-1-{6-[4-(4-ethylpiperazin-1-l)-phenylamino]-pyrimidin-4-yl}-1-methyl-urea] | 145.6 | – | – | 8/8 | – | 327.2 | – | 54.4% | 54.4% | 145.6 ± 66.5 mm^3 | 0.728 | 0.544 | strongly inhibits; also recorded: significantly inhibits | highly selective
